Structures are written as SMILES.

From patent publication US9320278B2, “Methods of controlling insects” (Syngenta Participations AG, priority 2012, dated 2016) come the findings set out here.

In the assay the test system is Anthonomus grandis (Cotton Boll Weevil). Nature of the assay: Anthonomus grandis (Cotton Boll Weevil) test on treated cotton plants, mortality. It is filed as in vivo. As to the method:
Anthonomus grandis (Cotton Boll Weevil)
Cotton plants are treated (100 mL spray volume) and 10 adult weevils are added to each plant (2 replicates per concentration). 5 days after infestation the mortality is assessed.
Compounds are tested according to the above method.

Where [1] appears, read: application rate 0.2 ppm, treated cotton plants, 10 adult weevils per plant, mortality 5 days after infestation.
Where [2] appears, read: application rate 0.8 ppm, treated cotton plants, 10 adult weevils per plant, mortality 5 days after infestation.
Setting [3] is: application rate 3 ppm, treated cotton plants, 10 adult weevils per plant, mortality 5 days after infestation.
Where [4] appears, read: application rate 12.5 ppm, treated cotton plants, 10 adult weevils per plant, mortality 5 days after infestation.
[5] abbreviates: application rate 50 ppm, treated cotton plants, 10 adult weevils per plant, mortality 5 days after infestation.
[6] abbreviates: application rate 0.01 ppm, treated cotton plants, 10 adult weevils per plant, mortality 5 days after infestation.
[7] abbreviates: application rate 0.05 ppm, treated cotton plants, 10 adult weevils per plant, mortality 5 days after infestation.
The mark [8] stands for this setting: comparative example, application rate 0.8 ppm, Anthonomus grandis (Cotton boll weevil).
[9] abbreviates: comparative example, application rate 3 ppm, Anthonomus grandis (Cotton boll weevil).
[10] abbreviates: comparative example, application rate 12.5 ppm, Anthonomus grandis (Cotton boll weevil).

As for `Cc1cc(C2=NOC(c3cc(Cl)c(Cl)c(Cl)c3)(C(F)(F)F)C2)ccc1C(=O)NC1CON(CC(F)(F)F)C1=O` (mixture of isomers) [Compound A1], the Control/% is, setting by setting: under setting [1], 45%; under setting [2], 90%; under setting [3], 100%; under setting [4], 100%; under setting [5], 95%.

`Cc1cc(C2=NOC(c3cc(Cl)cc(Cl)c3)(C(F)(F)F)C2)ccc1C(=O)NC1CON(C)C1=O` (mixture of isomers) [Compound A2]: the Control/% runs as follows: under setting [1], 45%; under setting [2], 80%; under setting [3], 100%; under setting [4], 100%; under setting [5], 100%.

`CCN1OCC(NC(=O)c2ccc(C3=NOC(c4cc(Cl)c(F)c(Cl)c4)(C(F)(F)F)C3)cc2C)C1=O` (mixture of isomers) [Compound A5]: the Control/% under setting [1] turned out to be 40%; the Control/% under setting [2] is listed as 40%; the Control/% under setting [3] turned out to be 95%; the Control/% under setting [4] is on record as 100%; the Control/% under setting [5] is given as 100%.

For the compound `Cc1cc(C2=NOC(c3cc(Cl)cc(Cl)c3)(C(F)(F)F)C2)ccc1C(=O)NC1CON(CC(F)F)C1=O` (mixture of isomers) [Compound A6], the Control/% stood at 35% under setting [6]; 50% under setting [7]; 95% under setting [1]; 100% under setting [2]; 100% under setting [3].

For `Cc1cc(C2=NOC(c3cc(Cl)cc(Cl)c3)(C(F)(F)F)C2)ccc1C(=O)NC1CON(CC(F)(F)F)C1=O` (mixture of isomers) [Compound A8], the Control/% is 20% under setting [6]; 35% under setting [7]; 70% under setting [1]; 100% under setting [2]; 100% under setting [3].

With `CCN1OCC(NC(=O)c2ccc(C3=NOC(c4cc(Cl)cc(Cl)c4)(C(F)(F)F)C3)cc2C)C1=O` (mixture of isomers) [Compound A9], the Control/% is, setting by setting: under setting [1], 25%; under setting [2], 15%; under setting [3], 75%; under setting [4], 100%; under setting [5], 100%.

Compound `Cc1cc(C2=NOC(c3cc(Cl)cc(Cl)c3)(C(F)(F)F)C2)ccc1C(=O)NC1CON(CC(F)(F)F)C1=O` (mixture of isomers) [Compound A21] gave a Control/% under setting [1] of 70%, a Control/% under setting [4] of 100% and a Control/% under setting [5] of 100%.

Turning to `Cc1cc(C2=NO[C@@](c3cc(Cl)cc(Cl)c3)(C(F)(F)F)C2)ccc1C(=O)N[C@H]1CON(CC(F)(F)F)C1=O` [Compound A3], the Control/% is, setting by setting: under setting [1], 60%; under setting [2], 60%; under setting [3], 100%; under setting [4], 100%; under setting [5], 100%.

For the compound `Cc1cc(C2=NO[C@@](c3cc(Cl)cc(Cl)c3)(C(F)(F)F)C2)ccc1C(=O)N[C@@H]1CON(CC(F)(F)F)C1=O` [Compound A16], the Control/% by setting is: under setting [6], 0%; under setting [7], 55%; under setting [1], 100%; under setting [2], 100%; under setting [3], 100%.

`CCN1OC[C@@H](NC(=O)c2ccc(C3=NO[C@@](c4cc(Cl)cc(Cl)c4)(C(F)(F)F)C3)cc2C)C1=O` [Compound A17]: the Control/% was 20% under setting [1]; 50% under setting [2]; 100% under setting [3]; 100% under setting [4]; 100% under setting [5].

Take `CCN1OC[C@@H](NC(=O)c2ccc(C3=NO[C@@](c4cc(Cl)cc(C(F)(F)F)c4)(C(F)(F)F)C3)c3ccccc23)C1=O` [Compound A18]: the Control/% under setting [1] amounted to 0%; the Control/% under setting [2] was 40%; the Control/% under setting [3] is reported as 30%; the Control/% under setting [4] was 35%; the Control/% under setting [5] is 100%.

Consider `CCN1OC[C@@H](NC(=O)c2ccc(C3=NO[C@@](c4cc(Cl)c(F)c(Cl)c4)(C(F)(F)F)C3)cc2Cl)C1=O` [Compound A19], for which the Control/% under setting [1] came out at 60%; the Control/% under setting [2] is reported as 30%; the Control/% under setting [3] is 85%; the Control/% under setting [4] was 95%; the Control/% under setting [5] worked out at 100%.

Regarding `CCN1OC[C@@H](NC(=O)c2ccc(C3=NO[C@@](c4cc(Cl)c(F)c(Cl)c4)(C(F)(F)F)C3)cc2C)C1=O` [Compound A20], the Control/% stood at 15% under setting [1]; 60% under setting [2]; 100% under setting [3]; 100% under setting [4]; 100% under setting [5].

For the compound `Cc1cc(C2=NOC(c3cc(Cl)cc(Cl)c3)(C(F)(F)F)C2)ccc1C(=O)N[C@@H]1CON(CC(F)(F)F)C1=O` (stereo partly drawn) [Compound of the invention], the Control/% amounted to 100% under setting [8], 100% under setting [9] and 100% under setting [10].

`Cc1cc(C2=NOC(c3cc(Cl)cc(Cl)c3)(C(F)(F)F)C2)ccc1C(=O)N[C@@H]1CON(Cc2ccccc2)C1=O` (stereo partly drawn) [Reference compound, reference compound]: the Control/% reads like this: under setting [8], 10%; under setting [9], 30%; under setting [10], 30%.
